Experimental data published in patent publication US6723680B2, “Composition for regulation of gametophytic self-incompatibility, control method of gametophytic self-incompatibility of a plant and the plant self-pollinated by using said control method” (Istech Co., Ltd., priority 2000, dated 2004).
Read-outs that look alike come from different tables or passages of the source.

Assays:
[1] = test system: pollen tube of Fuji apple; assay: Pollen tube elongation of self-pollen in medium with style-specific RNase and inhibitor; format: cell-based; conditions: 10 units S1 RNase in medium
Method: To investigate the effect of the style-specific S1 RNase purified in the example 1-4 on pollen tube elongation of self-pollen, experiment was conducted as follows. First of all, only the self-pollen made from a stamen of Fuji apple was isolated. The isolated pollen was cultured in the medium for pollen tube elongation, which was added with 0, 2, 4 and 6 units (mg^−1min^−1ml) of S1 RNase purified in the example 1-4, respectively, in a dark condition for 24 hours at 28° C. The medium for pollen tube elongation is composed of 20 mM Mes-KOH (pH 6.0), 0.07% Ca(NO3)2·4H2O, 0.02% MgSO4·7H2O, 0.01% KNO3, 0.01% H3BO3 and 2% sucrose, and elongates pollen tube artificially.
10 units (mg^−1min^−1ml^−1) of the style-specific S1 RNase was added to the medium for pollen tube elongation, and ZnSO4 and CuSO4 were added thereto at 1 mM, 2 mM and 5 mM respectively. And then, pollen tube was cultured according to the same method as the Example 2.

wild-type tomato [2] = format: in vivo; conditions: for Fruition rate: siloxane spreader 0.0335%, 4 days before full blooming; for concentration in which harmful effect of a medicine occurred: in vivo
Method: To investigate the fruition rate and harmful effects of a medicine according to the concentration of style-specific RNase inhibitors, ZnSO4 and CuSO4, style-specific RNase inhibitors of the present invention, were treated to wild-type tomato with various concentration in 4 days before full blooming.
Furthermore, to maximize the efficiency of the style-specific RNase inhibitor of the present invention as fruition control agents, ZnSO4 or CuSO4 was mixed with spreader of hexaconazole, siloxane and alkylaryl polyethoxylate class according to most appropriate usage amount by the manufacturer, and treated.
A composition mixed with the spreader of siloxane class (brand name:silhouette, Dongbu precision chemical company, Korea) to 0.0335% was prepared and the composition was treated to wild-type tomato.

wild-type tomato [3] = assay: Fruition rate of wild-type tomato according to blooming period of treatment; format: in vivo; conditions: 1 mM
Method: To test the effect of a style-specific RNase inhibitor in a practical cultivating environment, the style-specific RNase of the present invention was treated to the wild-type tomato that was cultivated in a greenhouse for research (located in Taegu Catholic University, Kyungsan city, Kyungsangpukdo, Republic of korea). In the present invention, the experiment was performed under the environmental condition that can keep the wild-type tomato, a representative plant having gametophytic self-incompatibility, a single species genetically.
To determine the treatment period of a style-specific RNase inhibitor, the inhibitor was treated at the early blooming period (budding formation period˜prior to fill blooming), the middle blooming period (full blooming) and the late blooming period (1 day after full blooming˜falling period of petal) respectively. The inhibitors, ZnSO4 and CuSO4 were then added with 1 mM (about 288 ppm) and 1 mM (about 250 ppm) respectively at 9˜11 a.m., when pollination of plant occurs most actively. Fruition rate was investigated, and the results of 4 times repeated experiments for 25 blooming periods (reproductive organ containing a stamen, a stigma, a petal, etc.) in each experiment were shown in Table 3 with the statistic value.

Fuji apple = format: in vivo; conditions: for Fruition rate: siloxane spreader 0.0335%, 4 days before full blooming; for concentration in which harmful effect of a medicine occurred: in vivo
Method: To investigate the fruition rate and harmful effect of a medicine according to the concentration of style-specific RNase inhibitors, ZnSO4 and CuSO4, style-specific RNase inhibitors of the present invention, were treated to Fuji apple with various concentration in 4 days before full blooming.
Furthermore, to maximize the efficiency of the style-specific RNase inhibitor of the present invention as fruition control agents, ZnSO4 or CuSO4 was mixed with the spreader of siloxane class (brand name silhouette, Dongbu precision chemical company, Korea) at 0.0335%, and treated to the Fuji apple.

## O=S(=O)([O-])[O-].[Cu+2] [CuSO4]
[1]; 1 mM inhibitor
  elongation of pollen tube: elongated again
wild-type tomato [2]; 20 ppm
  Fruition rate: 0%
wild-type tomato [2]; 40 ppm
  Fruition rate: 15%
wild-type tomato [2]; 60 ppm
  Fruition rate: 41%
wild-type tomato [2]; 80 ppm
  Fruition rate: 59%
wild-type tomato [2]; 100 ppm
  Fruition rate: 97%
wild-type tomato [2]; 200 ppm
  Fruition rate: 92%
wild-type tomato [2]; 300 ppm
  Fruition rate: 88%
wild-type tomato [2]; 400 ppm
  Fruition rate: 85%
wild-type tomato [2]; 500 ppm
  Fruition rate: 77%
wild-type tomato [2]; 600 ppm
  Fruition rate: 73%
wild-type tomato [2]; 700 ppm
  Fruition rate: 73%
wild-type tomato [2]; 800 ppm
  Fruition rate: 44%
wild-type tomato [2]; 900 ppm
  Fruition rate: 16%
wild-type tomato [2]; 1000 ppm
  Fruition rate: 7%
wild-type tomato [2]; 1100 ppm
  Fruition rate: 0%
wild-type tomato [2]; 1200 ppm
  Fruition rate: 0%
wild-type tomato [2]; 1300 ppm
  Fruition rate: 0%
wild-type tomato [2]; 1400 ppm
  Fruition rate: 0%
wild-type tomato [2]; 1500 ppm
  Fruition rate: 0%
wild-type tomato [2]
  concentration in which harmful effect of a medicine occurred: ≥ 800 ppm
wild-type tomato [3]; 1 day after full blooming
  Fruition rate: 0
wild-type tomato [3]; 1 day before blooming
  Fruition rate: 0
wild-type tomato [3]; 2 days after full blooming
  Fruition rate: 0
wild-type tomato [3]; 2 days before blooming
  Fruition rate: 0
wild-type tomato [3]; 3 days before blooming
  Fruition rate: >37%
wild-type tomato [3]; 4 days before blooming
  Fruition rate: >74%
wild-type tomato [3]; 5 days before blooming
  Fruition rate: >86%
wild-type tomato [3]; 6 days before blooming
  Fruition rate: >91%
wild-type tomato [3]; 7 days before blooming
  Fruition rate: >91%
wild-type tomato [3]; full blooming
  Fruition rate: 0
Fuji apple; 20 ppm
  Fruition rate: 0%
Fuji apple; 40 ppm
  Fruition rate: 0%
Fuji apple; 60 ppm
  Fruition rate: 11%
Fuji apple; 80 ppm
  Fruition rate: 39%
Fuji apple; 100 ppm
  Fruition rate: 70%
Fuji apple; 200 ppm
  Fruition rate: 76%
Fuji apple; 300 ppm
  Fruition rate: 88%
Fuji apple; 400 ppm
  Fruition rate: 85%
Fuji apple; 500 ppm
  Fruition rate: 77%
Fuji apple; 600 ppm
  Fruition rate: 73%
Fuji apple; 700 ppm
  Fruition rate: 73%
Fuji apple; 800 ppm
  Fruition rate: 52%
Fuji apple; 900 ppm
  Fruition rate: 31%
Fuji apple; 1000 ppm
  Fruition rate: 21%
Fuji apple; 1100 ppm
  Fruition rate: 11%
Fuji apple; 1200 ppm
  Fruition rate: 0%
Fuji apple; 1300 ppm
  Fruition rate: 0%
Fuji apple; 1400 ppm
  Fruition rate: 0%
Fuji apple; 1500 ppm
  Fruition rate: 0%
Fuji apple
  concentration in which harmful effect of a medicine occurred: ≥ 800 ppm

## O=S(=O)([O-])[O-].[Zn+2] [ZnSO4]
[1]; 1 mM inhibitor
  elongation of pollen tube: elongated again
[1]; 2 mM inhibitor
  elongation of pollen tube: elongated again
wild-type tomato [2]; 20 ppm
  Fruition rate: 0%
wild-type tomato [2]; 40 ppm
  Fruition rate: 13%
wild-type tomato [2]; 60 ppm
  Fruition rate: 31%
wild-type tomato [2]; 80 ppm
  Fruition rate: 61%
wild-type tomato [2]; 100 ppm
  Fruition rate: 99%
wild-type tomato [2]; 200 ppm
  Fruition rate: 98%
wild-type tomato [2]; 300 ppm
  Fruition rate: 93%
wild-type tomato [2]; 400 ppm
  Fruition rate: 88%
wild-type tomato [2]; 500 ppm
  Fruition rate: 85%
wild-type tomato [2]; 600 ppm
  Fruition rate: 84%
wild-type tomato [2]; 700 ppm
  Fruition rate: 74%
wild-type tomato [2]; 800 ppm
  Fruition rate: 71%
wild-type tomato [2]; 900 ppm
  Fruition rate: 62%
wild-type tomato [2]; 1000 ppm
  Fruition rate: 0%
wild-type tomato [2]; 1100 ppm
  Fruition rate: 0%
wild-type tomato [2]; 1200 ppm
  Fruition rate: 0%
wild-type tomato [2]; 1300 ppm
  Fruition rate: 0%
wild-type tomato [2]; 1400 ppm
  Fruition rate: 0%
wild-type tomato [2]; 1500 ppm
  Fruition rate: 0%
wild-type tomato [2]
  concentration in which harmful effect of a medicine occurred: ≥ 900 ppm
wild-type tomato [3]; 1 day after full blooming
  Fruition rate: 0
wild-type tomato [3]; 1 day before blooming
  Fruition rate: 0
wild-type tomato [3]; 2 days after full blooming
  Fruition rate: 0
wild-type tomato [3]; 2 days before blooming
  Fruition rate: 0
wild-type tomato [3]; 3 days before blooming
  Fruition rate: >30%
wild-type tomato [3]; 4 days before blooming
  Fruition rate: >71%
wild-type tomato [3]; 5 days before blooming
  Fruition rate: >83%
wild-type tomato [3]; 6 days before blooming
  Fruition rate: >90%
wild-type tomato [3]; 7 days before blooming
  Fruition rate: >92%
wild-type tomato [3]; full blooming
  Fruition rate: 0
Fuji apple; 20 ppm
  Fruition rate: 0%
Fuji apple; 40 ppm
  Fruition rate: 5%
Fuji apple; 60 ppm
  Fruition rate: 17%
Fuji apple; 80 ppm
  Fruition rate: 36%
Fuji apple; 100 ppm
  Fruition rate: 72%
Fuji apple; 200 ppm
  Fruition rate: 79%
Fuji apple; 300 ppm
  Fruition rate: 93%
Fuji apple; 400 ppm
  Fruition rate: 88%
Fuji apple; 500 ppm
  Fruition rate: 85%
Fuji apple; 600 ppm
  Fruition rate: 84%
Fuji apple; 700 ppm
  Fruition rate: 74%
Fuji apple; 800 ppm
  Fruition rate: 70%
Fuji apple; 900 ppm
  Fruition rate: 44%
Fuji apple; 1000 ppm
  Fruition rate: 27%
Fuji apple; 1100 ppm
  Fruition rate: 9%
Fuji apple; 1200 ppm
  Fruition rate: 0%
Fuji apple; 1300 ppm
  Fruition rate: 0%
Fuji apple; 1400 ppm
  Fruition rate: 0%
Fuji apple; 1500 ppm
  Fruition rate: 0%
Fuji apple
  concentration in which harmful effect of a medicine occurred: ≥ 900 ppm
